Assay results as given in paper PMC10906075 (2024).

Columns and labels:
[1] = system: Phe peptide (Phe1) (designed); test: OWLS; settings: 1x PBS, thiol for surface coupling (end not stated), OWLS: 1x PBS, nanopore: PBS (~150 mM salt), 0.5-1.5 V, pH and temperature not given
[2] = system: Phe peptide (Phe1) (designed); test: interface nanopore; settings: PBS, 1.5 V, 1.0 uN; thiol for surface coupling (end not stated); OWLS: 1x PBS; nanopore: PBS (~150 mM salt), 0.5-1.5 V; pH and temperature not given
[3] = system: FAM-labeled phenylalanine aptamer (DNA, aptamer) CTCTCGGGACGACGAGGCTGGATGCATTCGCCGGATGTTCGATGTCGTCCC; test: strand-displacement fluorescence assay (FAM/dabcyl); settings: PBS (~150 mM salt), 2 mM MgCl2, dabcyl quencher strand GTCGTCCCGAGAG (S4) displaced, 50 nM aptamer, 150 nM quencher, ~40 min, ambient

Compound | binding [3] | also measured
CGACGAGGCTGGATGCATTCGCCGGATGTTCGATGTCG [phenylalanine aptamer] |  | binding signal (ng/cm2 adsorbed mass) ([1]; peptide retained after buffer rinse): 198; binding signal (ms translocation time) [2]: 190
N[C@@H](Cc1ccc(O)cc1)C(=O)O | no | 
N[C@@H](Cc1c[nH]c2ccccc12)C(=O)O | no | 
N[C@@H](Cc1ccccc1)C(=O)O | yes | 
ATTGCTATTCACCGGCGCGGGGCTGGGGCATCGGTAAT [scrambled sequence] |  | binding signal (ng/cm2 adsorbed mass) ([1]; attributed to nonspecific electrostatic binding): 140; binding signal (ms translocation time) [2]: 11
NC(=O)[C@@H](N)Cc1ccccc1 | yes | 
NCCc1ccccc1 | weak | 
